The values below come from patent publication US11084807B2, “Piperazine derivatives, pharmaceutical compositions and methods of use thereof” (Vidac Pharma Ltd., priority 2016, dated 2021).

What all share (type): cell-based
Test [1] concerns H358 Human lung carcinoma cell-line. Nature of the test: XTT cytotoxicity, H358 lung carcinoma cells. How it is done: (§1) The piperazine-derivatives were prepared as a stock of 50 mM in 100% DMSO (dimethyl sulfoxide). Piperazine-derivatives were added at concentration ranging from 0.03-10 uM for 72 hours. Each experimental point was performed in triplicates. Vehicle (DMSO)-treated cells were used as control. Dilutions were performed in culture medium and DMSO so that the final concentration of DMSO in each well was 0.5%.
(§2) Optical density representing viable cells was determined using the XTT Cell Proliferation Kit assay (sodium 2,3,-bis(2-methoxy-4-nitro-5-sulfophenyl)-5-[(phenylamino)-carbonyl]-2H-tetrazolium inner salt, Biological industries, Beit-Haemek, Israel).
(§3) Percentage of Optical density is directly proportional to the number of living cells in culture. Cytotoxicity (%) was calculated in the following way: [(OD of drug-treated cells-OD of background)/(OD of control cells-OD of background)]×100.
(§4) New piperazine derivatives were tested for cytotoxicity in 4 cancer cell lines:
C) H358—Human lung carcinoma cell-line
New piperazine derivatives (compounds of Formula (IV)) were tested for cytotoxicity in the H358 human lung carcinoma cell line. Table 2 below provides IC50 values for the tested compounds.
New piperazine derivatives (compounds of Formula (V)) were tested for cytotoxicity in the H358 human lung carcinoma cell line. Table 3 below provide IC50 values for the tested compounds.

For test [2], the system named is PC3 prostate cancer line. The test is described as follows: Cytotoxicity, PC3 prostate cancer cells. The settings on record: 25 mM glucose, 1500 cell/well, 10% FCS, 72 hours, read-out: IC50 (μM), prostate cancer cell line (Table 4).
Test [3] relates to Panc-1 Human pancreatic carcinoma cell-line. The test is described as follows: XTT cytotoxicity, Panc-1 pancreatic carcinoma cells. The settings on record: Panc-1, XTT, 72 hr. How it is done:
The piperazine-derivatives were prepared as a stock of 50 mM in 100% DMSO (dimethyl sulfoxide). […] Each experimental point was performed in triplicates. Vehicle (DMSO)-treated cells were used as control. Dilutions were performed in culture medium and DMSO so that the final concentration of DMSO in each well was 0.5%.
as §2, §3, §4
D) Panc-1—Human pancreatic carcinoma cell-line

The subject of test [4] is Hela Human cervix adenocarcinoma cell-line. Nature of the test: XTT cytotoxicity, Hela cervix adenocarcinoma cells. The settings on record: 72 hr. As to the method:
as §1, §2, §3, §4
B) Hela—Human cervix adenocarcinoma cell-line

The test system of test [5] is HCT116 Human colon carcinoma cell-line. Nature of the test: XTT cytotoxicity, HCT116 colon carcinoma cells. The settings on record: HCT-116, 72 hr. How it is done:
as §1, §2, §3, §4
A) HCT116—Human colon carcinoma cell-line

[6] abbreviates: NCI-H358, H358 lung cancer line, 11.5 mM glucose, 5000 cell/well, 0.5% FCS, 72 hours, read-out: IC50 (μM), lung cancer cell line (Table 3).
Where [7] appears, read: NCI-H358, H358, XTT, 72 hr (Table 1), read-out: IC50 (XTT, 72 hr) Lung H358.
Setting [8] is: NCI-H358, H358 lung cancer line, 11.5 mM glucose, 5000 cell/well, 0.5% FCS, 72 hours, read-out: IC50 (μM), lung cancer cell line (Table 2).

Read-outs that look alike come from different tables or passages of the source.

Usually IC50 stands for the concentration at which inhibition is half-maximal. Take `O=C(N1CCN(c2cc(F)cc(F)c2)CC1)n1c2ccccc2c2ccccc21` [Compound 23]: the IC50 turned out to be 0.009 µM in test [1] (setting [6]) and 0.08 µM in test [2].

For `O=C(N1CCN(c2c(F)cccc2F)CC1)N1c2ccccc2Oc2ccccc21` [Compound 5], the IC50 is 0.84 µM in test [1] (setting [7]); 0.265 µM in test [1] (setting [8]); 900 nM in test [3]; 400 nM in test [4]; 1080 nM in test [5].

Turning to `O=C(N1CCN(c2c(F)c(F)c(F)c(F)c2F)CC1)N1c2ccccc2Oc2ccccc21` [Compound 2], the IC50 is above 10 µM in test [1] (setting [8]), above 30000 nM in test [3] and 1900 nM in test [4].

For `COc1cccc(N2CCN(C(=O)N3c4ccccc4Oc4ccccc43)CC2)c1` [Compound 11], in test [1] (setting [8]), the IC50 turned out to be 0.0047 µM.

Turning to `O=C(N1CCC(c2ccccc2)CC1)N1c2ccccc2Oc2ccccc21` [Compound 16], in test [1] (setting [8]), the IC50 is 1.37 µM.

`O=C(N1CCN(c2ccccc2)CC1)n1c2ccccc2c2ccccc21` [Compound 20]: the IC50 in test [1] (setting [6]) stood at 0.027 µM.

Regarding `O=C(C1c2ccccc2Sc2ccccc21)N1CCN(c2ccccc2)CC1` [Compound 3], the IC50 is 1.35 µM in test [1] (setting [7]); 0.43 µM in test [1] (setting [8]); 310 nM in test [3]; 500 nM in test [4]; 640 nM in test [5].

As for `COc1ccccc1N1CCN(C(=O)N2c3ccccc3Oc3ccccc32)CC1` [Compound 12], the IC50 in test [1] (setting [8]) was determined as 0.0066 µM.

Take `O=C(N1CCN(c2cc(F)cc(F)c2)CC1)N1c2ccccc2Oc2ccccc21` [Compound 13]: in test [1] (setting [8]), the IC50 amounted to 0.0067 µM.

Regarding `O=C(N1CCN(c2ccc(F)cc2)CC1)N1c2ccccc2Oc2ccccc21` [Compound 15], the IC50 in test [1] (setting [8]) worked out at 0.24 µM.

On to `O=C(N1CCN(c2ccc(O)cc2)CC1)N1c2ccccc2Oc2ccccc21` [Compound 14], for which the IC50 in test [1] (setting [8]) came to 0.051 µM.

For `O=C(N1CCN(c2ccccc2)CC1)N1c2ccccc2Oc2ccccc21` [Compound 1], the IC50 in test [1] (setting [7]) turned out to be 0.05 µM; in test [1] (setting [8]), 0.025 µM; in test [3], 10 nM; in test [4] it was 15 nM; in test [2] it was 0.026 µM; in test [5], 10 nM.
